Target: T1, WarA (PA4379) (Pseudomonas aeruginosa, UniProt Q9HW23)
T1 sequence (Q9HW23 1-227): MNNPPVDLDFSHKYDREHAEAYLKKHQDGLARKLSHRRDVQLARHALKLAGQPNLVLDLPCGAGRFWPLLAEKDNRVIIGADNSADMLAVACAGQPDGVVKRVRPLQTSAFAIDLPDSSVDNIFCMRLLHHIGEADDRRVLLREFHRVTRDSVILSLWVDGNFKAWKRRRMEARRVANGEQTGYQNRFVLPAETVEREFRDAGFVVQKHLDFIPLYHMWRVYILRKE
Conditions: methyl acceptor: LPS from a warA deletion mutant

C[S+](CC[C@H](N)C(=O)O)C[C@H]1O[C@@H](n2cnc3c(N)ncnc32)[C@H](O)[C@@H]1O (stereo partly drawn) [S-adenosyl-L-methionine]
fluorescent methyltransferase activity kit: using S-adenosyl-L-methionine as the methyl group donor and measuring activity in relative fluorescent units

— paper PMC5341770 (Nature microbiology, 2017)
